Data as given in ChEMBL document CHEMBL1132013, “Synthesis, computer modeling and biological evaluation of novel protein kinase C agonists based on a 7-membered lactam moiety” (Bioorg Med Chem Lett, 1999).

How the values were obtained:
[1] = tested on: HL-60; assay: Inhibition of HL-60 monocyte cell proliferation; Range = 1-8 uM; assay type: functional; details: Homo sapiens, read-out: ED50 (the source's name)
[2] = target: T1, Protein kinase C alpha type (Homo sapiens, UniProt P17252); assay: (§1) Displacement of [3H]PDBu from human recombinant Protein kinase C alpha
[3] = tested on: HL-60; assay: Inhibition of HL-60 monocyte cell proliferation; assay type: functional; details: Homo sapiens, read-out: ED50 (the source's name)
[4] = tested on: HL-60; assay: Inhibition of HL-60 monocyte cell proliferation; Range = 0.3-0.7 uM; assay type: functional; details: Homo sapiens, read-out: ED50 (the source's name)
[5] = target: T1, Protein kinase C alpha type; assay: as §1; remark: listed apart in the source

Compound	EC50 [1]	Ki [2]	EC50 [3]	EC50 [4]	Ki [5]
CC(C)CCCC(C)[C@H]1CC[C@H]2[C@@H]3CC[C@H]4CC(=O)N[C@H](CO)C[C@]4(C)[C@H]3CC[C@]12C (some centres undefined)	8000 nM	> 500 nM			
CCCCC1(CCCC)CC[C@H]2[C@H](C)C(=O)N[C@H](CO)C[C@]2(C)C1		21 nM	150 nM		
CC(C)CCCC(C)[C@H]1CC[C@H]2[C@@H]3CC[C@H]4CC(=O)N[C@@H](CO)C[C@]4(C)[C@H]3CC[C@]12C (some centres undefined)	8000 nM	> 500 nM			
CCCCC1(CCCC)CC[C@H]2CC(=O)N[C@@H](CO)C[C@]2(C)C1		190 nM		700 nM	
CCCCCCCC[C@@H]1C(=O)N[C@H](CO)C[C@]2(C)CC(CCCC)(CCCC)CC[C@@H]12		11 nM	150 nM		
CCCCC1(CCCC)CC[C@H]2CC(=O)N[C@H](CO)C[C@]2(C)C1		60 nM		700 nM	80 nM

Next, values leading:

EC50 [1]	Ki [2]	EC50 [3]	EC50 [4]	Ki [5]	Compound
8000 nM	> 500 nM				C[C@@]12CCC[C@H]1[C@@H]1CC[C@H]3CC(=O)N[C@@H](CO)C[C@]3(C)[C@H]1CC2
8000 nM	> 500 nM				C[C@@]12CCC[C@H]1[C@@H]1CC[C@H]3CC(=O)N[C@H](CO)C[C@]3(C)[C@H]1CC2
	17 nM	150 nM			CCCC[C@@H]1C(=O)N[C@H](CO)C[C@]2(C)CC(CCCC)(CCCC)CC[C@@H]12
